Test results as given in patent publication US20060063782A1, “3-Hetero arylmethoxy ! pyridines and their analogues as p38 map kinase inhibitors” (priority 2002, published 2006).

These compounds were tested against p38 MAP kinase (Homo sapiens, UniProt Q16539) (assay: p38 MAP Kinase Assay (33P incorporation into myelin basic protein, filter plate)). Settings: Table 1; MKK6-activated p38, MBP substrate, 50 minutes.
Assay type: biochemical
Description: The activated p38 is then diluted 1:6 with assay buffer, and 20 μl mixed with 25 μl of MBP mix (300 μl 10×strength assay buffer, 300 μl of 10 mM DTT & 10 mM sodium orthovanadate, 1.7 ml H2O, 50 μCi γ^33P-ATP, 200 μl of myelin basic protein (MBP) (5 mg/ml)) and added to 96 well plates along with 5 μl of various dilutions of the test compound in DMSO (up to 10%). The reaction is allowed to proceed for 50 minutes before being stopped with an excess of ortho-phosphoric acid (30 μl at 2%).
γ^33P-ATP which remains unincorporated into the myelin basic protein is separated from phosphorylated MBP on a Millipore MAPH filter plate. The wells of the MAPH plate are wetted with 0.5% orthophosphoric acid, and then the results of the reaction are filtered with a Millipore vacuum filtration unit through the wells. Following filtration, the residue is washed twice with 200 μl of 0.5% orthophosphoric acid. Once the filters have dried, 25 μl of Microscint 20 scintillant is added, and then counted on a Packard Topcount for 30 seconds.

p38 MAP kinase, sequence (Q16539 whole entry): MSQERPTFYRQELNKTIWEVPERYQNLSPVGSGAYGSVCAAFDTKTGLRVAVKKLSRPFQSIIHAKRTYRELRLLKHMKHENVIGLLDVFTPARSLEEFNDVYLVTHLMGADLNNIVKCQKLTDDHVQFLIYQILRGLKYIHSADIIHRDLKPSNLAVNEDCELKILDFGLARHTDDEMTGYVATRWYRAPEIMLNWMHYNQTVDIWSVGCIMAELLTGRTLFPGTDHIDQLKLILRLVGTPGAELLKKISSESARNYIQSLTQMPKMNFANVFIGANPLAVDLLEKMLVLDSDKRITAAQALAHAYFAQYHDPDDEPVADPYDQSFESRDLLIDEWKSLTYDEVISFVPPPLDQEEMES

Row | IC50 [µM] | SMILES
1 | < 1000 | O=S(=O)(c1ccccc1)N(c1ccc(Cl)c(COc2cccnc2)c1)S(=O)(=O)c1ccccc1 [Compound 56, N-[4-Chloro-3-(pyridin-3-yloxymethyl)-phenyl]-bisbenzenesulfonamide]
2 | < 200 | O=C1c2ccccc2C(O)N1c1ccc(Cl)c(COc2cccnc2)c1 (centres unmarked) [Compound 73]
3 | < 20 | O=C(Nc1ccc(Cl)c(COc2cccnc2)c1)c1cccc(Cl)c1 [Compound 70, 3-Chloro-N-[4-chloro-3-(pyridin-3-yloxymethyl)-phenyl]-benzamide]
4 | < 200 | Nc1ncccc1OCc1ccc(Cl)c(F)c1 [Compound 16, 2-amino-3-(4-chloro-3-fluorobenzyloxy)pyridine]
5 | < 2 | O=C(Nc1ccc(Cl)c(COc2ccc(NCc3ccccc3)nc2)c1)c1cc(F)cc(N2CCOCC2)c1 [Compound 77, N-[3-(6-Benzylamino-pyridin-3-yloxymethyl)-4-chloro-phenyl]-3-fluoro-5-morpholin-4-yl-benzamide]
6 | < 200 | Clc1cccc(Cl)c1COc1ccc(NCc2ccccc2)nc1 [Compound 51]
7 | < 1000 | Clc1cccc(Cl)c1COc1ccc(N2CCOCC2)nc1 [Compound 54]
8 | < 20 | Nc1ncccc1OCc1cc(NC(=O)c2ccccc2)ccc1Cl [Compound 57, N-[3-(2-Amino-pyridin-3-yloxymethyl)-4-chloro-phenyl]-benzamide]
9 | < 1000 | Nc1ncccc1OCc1cccc2ccoc12 [Compound 47]
10 | < 200 | O=C(Nc1cccc(COc2cccnc2)c1)c1ccccc1 [Compound 66, N-[3-(Pyridin-3-yloxymethyl)-phenyl]-benzamide]
11 | < 1000 | Nc1ncccc1OCc1ccccc1CS(=O)(=O)c1ccccc1 [Compound 25]
12 | < 1000 | CC(=O)Nc1ccc(Cl)c(COc2cccnc2)c1 [Compound 43]
13 | < 200 | O=S(=O)(Nc1ccc(Cl)c(COc2cccnc2)c1)c1ccccc1 [Compound 55, N-(4-Chloro-3-(pyridin-3-yloxymethyl)-phenyl]-benzenesulfonamide]
14 | < 1000 | Nc1ncccc1OCc1cccc(C(=O)NCC2CC2)c1 [Compound 34]
15 | < 1000 | Nc1ncccc1OCn1nnc2ccccc21 [Compound 37]
16 | < 200 | OCCNc1ccc(OCc2ccccc2)cn1 [Compound 45]
17 | < 200 | O=C(Nc1ccc(F)c(COc2cccnc2)c1)c1ccccc1 [Compound 59, N-[4-Fluoro-3-(pyridin-3-yloxymethyl)-phenyl]-benzamide]
18 | < 1000 | O=C1c2ccccc2CN1c1ccc(F)c(COc2cccnc2)c1 [Compound 80]
19 | < 1000 | Nc1ncccc1OCc1ccc(Cl)cc1Cl [Compound 15, 2-amino-3-(2,4-dichlorobenzyloxy)pyridine]
20 | < 20 | O=C(Nc1ccc(F)c(COc2cccnc2)c1)c1cncc(N2CCOCC2)n1 [Compound 75, 6-Morpholin-4-yl-pyrazine-2-carboxylic acid [4-fluoro-3-(pyridin-3-yloxymethyl)-phenyl]-amide]

Same assay, conditions: Table 2; MKK6-activated p38, MBP substrate, 50 minutes

Row | IC50 [µM] | SMILES
21 | < 20 | CC(C)(C)c1ccc(C(=O)Nc2ccc(F)c(COc3cnccn3)c2)cc1 [Compound 101, 4-tert-Butyl-N-[4-fluoro-3-(pyrazin-2-yloxymethyl)-phenyl]-benzamide]
22 | < 2 | O=C(Nc1ccc(F)c(COc2cnccn2)c1)Nc1cc(-c2ccc(Cl)cc2)nn1-c1ccccc1 [Compound 128, 1-[5-(4-Chloro-phenyl)-2-phenyl-2H-pyrazol-3-yl]-3-[4-fluoro-3-(pyrazin-2-yloxymethyl)-phenyl]-urea]
23 | < 2 | CC(C)(C)c1cc(NC(=O)Nc2ccc(F)c(COc3cnccn3)c2)n(-c2ccc(Cl)nn2)n1 [Compound 156, 1-[5-tert-Butyl-2-(6-chloro-pyridazin-3-yl)-2H-pyrazol-3-yl]-3-[4-fluoro-3-(pyrazin-2-yloxymethyl)-phenyl]-urea]
24 | < 20 | CC(C)(C)c1cc(C(=O)Nc2ccc(F)c(COc3cnccn3)c2)n(Cc2ccc(F)cc2)n1 [Compound 136, 5-tert-Butyl-2-(4-fluoro-benzyl)-2H-pyrazole-3-carboxylic acid [4-fluoro-3-(pyrazin-2-yloxymethyl)-phenyl]-amide]
25 | < 2 | O=C(Nc1ccc(F)c(COc2cnccn2)c1)Nc1nnc(C2CCCO2)s1 (centres unmarked) [Compound 140, 1-[4-Fluoro-3-(pyrazin-2-yloxymethyl)-phenyl]-3-[5-(tetrahydro-furan-2-yl)-[1,3,4]thiadiazol-2-yl]-urea]
26 | < 20 | CC(C)(C)c1cc(C(=O)Nc2ccc(F)c(COc3cnccn3)c2)n(Cc2ccccc2)n1 [Compound 135, 2-Benzyl-5-tert-butyl-2H-pyrazole-3-carboxylic acid [4-fluoro-3-(pyrazin-2-yloxymethyl)-phenyl]-amide]
27 | < 2 | O=C(Nc1ccc(Cl)c(COc2cnccn2)c1)c1ccnc(N2CCOCC2)c1 [Compound 93, N-[4-Chloro-3-(pyrazin-2-yloxymethyl)-phenyl]-2-morpholin-4-yl-isonicotinamide]
28 | < 20 | CC(C)c1nnc(NC(=O)Nc2ccc(F)c(COc3cnccn3)c2)s1 [Compound 97, 1-[4-Fluoro-3-(pyrazin-2-yloxymethyl)-phenyl]-3-(5-isopropyl-[1,3,4]thiadiazol-2-yl)-urea]
29 | < 2 | O=C(Nc1ccc(F)c(COc2cnccn2)c1)Nc1cc(-c2ccc(Cl)cc2)nn1-c1ccc(F)cc1 [Compound 132, 1-[5-(4-Chloro-phenyl)-2-(4-fluoro-phenyl)-2H-pyrazol-3-yl]-3-[4-fluoro-3-(pyrazin-2-yloxymethyl)-phenyl]-urea]
30 | < 2 | CC(C)(C)c1cc(NC(=O)Nc2ccc(F)c(COc3cnccn3)c2)n(-c2ccc(Cl)cc2)n1 [Compound 127, 1-[5-tert-Butyl-2-(4-chloro-phenyl)-2H-pyrazol-3-yl]-3-[4-fluoro-3-(pyrazin-2-yloxymethyl)-phenyl]-urea]
31 | < 20 | CC(C)(C)c1cc(NC(=O)Nc2ccc(F)c(COc3cnccn3)c2)n(-c2nc3ccccc3s2)n1 [Compound 155, 1-(2-Benzothiazol-2-yl-5-tert-butyl-2H-pyrazol-3-yl)-3-[4-fluoro-3-(pyrazin-2-yloxymethyl)-phenyl]-urea]
32 | < 200 | CC(C)(C)c1ccc(-n2nc(C3CC3)cc2NC(=O)Nc2ccc(F)c(COc3cnccn3)c2)cc1 [Compound 164, 1-[2-(4-tert-Butyl-phenyl)-5-cyclopropyl-2H-pyrazol-3-yl]-3-[4-fluoro-3-(pyrazin-2-yloxymethyl)-phenyl]-urea]
33 | < 20 | O=C(Nc1ccc(F)c(COc2cnccn2)c1)c1ccc(=O)n(Cc2ccccc2)c1 [Compound 147, 1-Benzyl-6-oxo-1,6-dihydro-pyridine-3-carboxylic acid [4-fluoro-3-(pyrazin-2-yloxymethyl)-phenyl]-amide]
34 | < 2 | Cc1ccc(-n2nc(C(C)(C)C)cc2NC(=O)Nc2ccc(F)c(COc3cnccn3)c2)cc1 [Compound 130, 1-(5-tert-Butyl-2-p-tolyl-2H-pyrazol-3-yl)-3-[4-fluoro-3-(pyrazin-2-yloxymethyl)-phenyl]-urea]
35 | < 200 | Cc1nc(-c2cc(C(=O)Nc3ccc(F)c(COc4cnccn4)c3)no2)cs1 [Compound 124, 5-(2-Methyl-thiazol-4-yl)-isoxazole-3-carboxylic acid [4-fluoro-3-(pyrazin-2-yloxymethyl)-phenyl]-amide]
36 | < 2 | O=C(Nc1ccc(F)c(COc2cnccn2)c1)c1cccc(S(=O)(=O)N2CCOCC2)c1 [Compound 98, N-[4-Fluoro-3-(pyrazin-2-yloxymethyl)-phenyl]-3-(morpholine-4-sulfonyl)-benzamide]
37 | < 2 | CC(C)(C)c1cc(NC(=O)Nc2ccc(F)c(COc3cnccn3)c2)n(-c2ccc(F)cc2F)n1 [Compound 125, 1-[5-tert-Butyl-2-(2,4-difluoro-phenyl)-2H-pyrazol-3-yl]-3-[4-fluoro-3-(pyrazin-2-yloxymethyl)-phenyl]-urea]

The remaining lines, values behind:

Row | SMILES | IC50 [µM]
38 | Clc1cccc(Cl)c1COc1cnc(N2CCOCC2)cn1 [Compound 152, 4-[5-(2,6-Dichloro-benzyloxy)-pyrazin-2-yl]-morpholine] | < 200
39 | CC(C)(C)C(=O)Nc1cnc(OCc2c(Cl)cccc2Cl)cn1 [Compound 167] | < 200
40 | c1ccc(CNc2cccc(COc3cnccn3)c2)cc1 [Compound 108] | < 1000
41 | CN1CCN(CC(=O)Nc2cnc(OCc3c(Cl)cccc3Cl)cn2)CC1 [Compound 170] | < 20
42 | O=C(CN1CCCCC1)Nc1cnc(OCc2c(Cl)cccc2Cl)cn1 [Compound 172] | < 200
43 | NS(=O)(=O)CCNC(=O)c1cnc(OCc2c(Cl)cccc2Cl)cn1 [Compound 138, 5-(2,6-dichloro-benzyloxy)-pyrazine-2-carboxylic acid (2-sulfamoyl-ethyl)-amide] | < 1000
44 | CNc1cnc(OCc2c(Cl)cccc2Cl)cn1 [Compound 148, [5-(2,6-Dichloro-benzyloxy)-pyrazin-2-yl]-methyl-amine] | < 200
45 | CC(Nc1cnc(OCc2c(Cl)cccc2Cl)cn1)c1ccccc1 (centres unmarked) [Compound 154, [5-(2,6-Dichloro-benzyloxy)-pyrazin-2-yl]-(1-phenyl-ethyl)-amine] | < 20
46 | CC1(C(=O)Nc2cnc(OCc3c(Cl)cccc3Cl)cn2)CC1 [Compound 168] | < 200
47 | CCNC(=O)c1cnc(OCc2c(Cl)cccc2Cl)cn1 [Compound 111, 5-(2,6-Dichloro-benzyloxy)-pyrazine-2-carboxylic acid ethylamide] | < 1000
